From publication PMC6100082, “Pyridine-Ureas as Potential Anticancer Agents: Synthesis and In Vitro Biological Evaluation” (Molecules : A Journal of Synthetic Chemistry and Natural …, 2018)

Columns and labels:
[1] = system: NCI-H226; test: NCI one-dose SRB assay (Non-Small Cell Lung Cancer); assay type: cell-based, human
Protocol: (§1) The structures of all the newly prepared pyridine-ureas 8a–n were submitted to the National Cancer Institute (NCI) Developmental Therapeutic Program. Eight compounds 8b, 8d, 8e, 8i, 8j and 8l–n were selected to be examined for their in vitro growth inhibitory activity. The anticancer assays were carried out according to the protocol of the Drug Evaluation Branch, NCI, Bethesda. The selected pyridine-ureas were tested at one dose primary anticancer assay against a panel of approximately 58 cancer lines (concentration 10^−5 M). The tested human cancer cell lines emerged from nine different cancer subtypes: leukemia, colon, melanoma, ovarian, lung, CNS, renal, breast and prostate cancers. The sulforhodamine B (SRB) protein assay was adopted to estimate the cell viability and growth. The results were reported as mean-graph of the percentage growth of the treated cells, and presented as percentage growth inhibition (GI%) caused by the test compounds (Table 2).
(§2) The anticancer assays were performed in accordance with the protocol of the Drug Evaluation Branch, NCI, Bethesda. A 48 h drug exposure protocol was used and sulforhodamine B (SRB) protein assay was applied to estimate the cell viability and growth, as reported earlier.

[2] = system: NCI-H23; test: as above; assay type: cell-based, human
Protocol: as §1, §2

[3] = system: HOP-62; test: as above; assay type: cell-based, human
Protocol: as §1, §2

[4] = system: NCI-H460; test: as above; assay type: cell-based, human
Protocol: as §1, §2

[5] = system: HOP-92; test: as above; assay type: cell-based, human
Protocol: as §1, §2

[6] = system: NCI-H522; test: as above; assay type: cell-based, human
Protocol: as §1, §2

[7] = system: NCI-H322M; test: as above; assay type: cell-based, human
Protocol: as §1, §2

[8] = system: A549/ATCC; test: as above; assay type: cell-based, human
Protocol: as §1, §2

[9] = system: EKVX; test: as above; assay type: cell-based, human
Protocol: as §1, §2

[10] = molecular target: VEGFR-2 (Homo sapiens, UniProt P35968); test: VEGFR-2 inhibitory assay (Alpha Screen, anti-phosphotyrosine antibody)
[11] = system: non-tumorigenic human lung fibroblast WI-38 cell line; test: Cytotoxic activity against non-tumorigenic cells, MTT assay; assay type: cell-based; details: WI-38, MTT
Protocol: The cytotoxic activity of compounds 8b and 8e were evaluated against non-tumorigenic human lung fibroblast WI-38 cell line utilizing the MTT colorimetric assay developed by T. Mosmann (Table 3).
MCF-7 (human breast cancer cell line) and WI-38 (human lung fibroblast cell line), were obtained from American Type Culture Collection (Manassas, VA, USA). The cells were propagated in DMEM and supplemented with 10% heat-inactivated FBS (Hyclone), 10 μg/mL of insulin (Manufacturer, Sigma, St. Louis, MO, USA), and 1% penicillin-streptomycin. MTT assay was utilized to examine the in vitro anti-proliferative activity of the newly prepared ureas following the reported procedures. […] The data presented are the mean of at least three separate experiments.

[12] = system: HCT-116; test: NCI one-dose SRB assay (Colon Cancer); assay type: cell-based, human
Procedure, shortened: (§3)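 Cells were treated with compound at 10^−5 M. After 48 h, growth was estimated with sulforhodamine B. Inhibition was given as GI%.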

[13] = system: HCC-2998; test: NCI one-dose SRB assay (Colon Cancer); assay type: cell-based, human
Procedure, shortened: as §3

[14] = Homo sapiens, 10 μM, read-out: Percentage growth inhibition (GI%)

Chain of VEGFR-2 (P35968 20-1356, species assumed): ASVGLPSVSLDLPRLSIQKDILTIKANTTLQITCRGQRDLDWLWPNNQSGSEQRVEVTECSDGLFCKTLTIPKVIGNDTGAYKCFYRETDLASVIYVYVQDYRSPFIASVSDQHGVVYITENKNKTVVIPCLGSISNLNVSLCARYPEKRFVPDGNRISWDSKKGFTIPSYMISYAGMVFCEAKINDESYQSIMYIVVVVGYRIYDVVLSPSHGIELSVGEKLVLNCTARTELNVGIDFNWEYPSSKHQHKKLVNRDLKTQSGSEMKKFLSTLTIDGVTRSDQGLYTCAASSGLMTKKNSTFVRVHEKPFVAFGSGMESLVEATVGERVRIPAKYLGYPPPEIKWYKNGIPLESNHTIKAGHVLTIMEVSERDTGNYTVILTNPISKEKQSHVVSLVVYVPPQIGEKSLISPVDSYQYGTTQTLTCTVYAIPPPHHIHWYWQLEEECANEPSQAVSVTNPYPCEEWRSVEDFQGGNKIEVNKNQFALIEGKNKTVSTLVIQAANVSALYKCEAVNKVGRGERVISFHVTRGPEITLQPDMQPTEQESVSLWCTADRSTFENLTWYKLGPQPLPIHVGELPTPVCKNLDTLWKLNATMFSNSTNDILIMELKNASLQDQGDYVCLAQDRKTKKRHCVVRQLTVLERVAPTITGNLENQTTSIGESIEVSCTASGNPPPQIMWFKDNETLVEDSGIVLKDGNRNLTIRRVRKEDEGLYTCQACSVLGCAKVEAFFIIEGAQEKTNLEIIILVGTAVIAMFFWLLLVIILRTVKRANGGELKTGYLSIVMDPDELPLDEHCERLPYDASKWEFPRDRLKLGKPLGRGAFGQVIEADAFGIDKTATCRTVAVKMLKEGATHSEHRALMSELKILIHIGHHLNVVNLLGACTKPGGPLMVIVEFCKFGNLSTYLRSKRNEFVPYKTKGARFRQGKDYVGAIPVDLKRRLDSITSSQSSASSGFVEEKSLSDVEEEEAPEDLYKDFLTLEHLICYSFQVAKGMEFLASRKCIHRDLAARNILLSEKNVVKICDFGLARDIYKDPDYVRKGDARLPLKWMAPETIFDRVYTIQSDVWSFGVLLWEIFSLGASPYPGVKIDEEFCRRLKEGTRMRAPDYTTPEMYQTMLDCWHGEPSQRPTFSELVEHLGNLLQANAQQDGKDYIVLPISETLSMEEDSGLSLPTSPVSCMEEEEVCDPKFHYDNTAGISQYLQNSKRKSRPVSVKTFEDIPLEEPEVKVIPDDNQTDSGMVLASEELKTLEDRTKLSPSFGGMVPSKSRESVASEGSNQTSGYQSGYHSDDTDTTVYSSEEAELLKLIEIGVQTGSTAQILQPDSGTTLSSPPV

## COc1ccc(-c2ccc(NC(=O)Nc3ccc(Cl)c(C(F)(F)F)c3)c(C)n2)cc1 [Compound 8e, 1-(4-Chloro-3-(trifluoromethyl)phenyl)-3-(6-(4-methoxyphenyl)-2-methylpyridin-3-yl)urea]
[1]; Homo sapiens, NCI-H226, 10 μM, read-out: Percentage growth inhibition (GI%)
  inhibition at 10 µM: 35%
[1]; NCI-H226, 1.00E-5 Molar
  Growth Percent: 65.24%
[2]; Homo sapiens, NCI-H23, 10 μM, read-out: Percentage growth inhibition (GI%)
  inhibition at 10 µM: 70%
[2]; NCI-H23, 1.00E-5 Molar
  Growth Percent: 30.94%
[3]; HOP-62, 1.00E-5 Molar
  Growth Percent: 62.10%
[3]; Homo sapiens, HOP-62, 10 μM, read-out: Percentage growth inhibition (GI%)
  inhibition at 10 µM: 38%
[4]; Homo sapiens, NCI-H460, 10 μM, read-out: Percentage growth inhibition (GI%)
  inhibition at 10 µM: 70%
[4]; NCI-H460, 1.00E-5 Molar
  Growth Percent: 30.90%
[5]; HOP-92, 1.00E-5 Molar
  Growth Percent: 27.03%
[5]; Homo sapiens, HOP-92, 10 μM, read-out: Percentage growth inhibition (GI%)
  inhibition at 10 µM: 73%
[6]; Homo sapiens, NCI-H522, 10 μM, read-out: Percentage growth inhibition (GI%)
  inhibition at 10 µM: 76%
[6]; NCI-H522, 1.00E-5 Molar
  Growth Percent: 24.81%
[7]; 1.00E-5 Molar
  Growth Percent: 71.44%
[7]; [14]
  inhibition at 10 µM: 29%
[8]; 1.00E-5 Molar
  Growth Percent: 38.71%
[8]; [14]
  inhibition at 10 µM: 62%
[9]; 1.00E-5 Molar
  Growth Percent: 49.19%
[9]; [14]
  inhibition at 10 µM: 51%
[10]
  IC50: 3.93 ± 0.73 µM
[11]
  IC50: 83.1 ± 5.21 µM
[12]; HCT-116, 1.00E-5 Molar
  Growth Percent: 23.73%
[12]; Homo sapiens, HCT-116, 10 μM, read-out: Percentage growth inhibition (GI%)
  inhibition at 10 µM: 77%
[13]; HCC-2998, 1.00E-5 Molar
  Growth Percent: 69.17%
[13]; Homo sapiens, HCC-2998, 10 μM, read-out: Percentage growth inhibition (GI%)
  inhibition at 10 µM: 31%
